According to ChEMBL document CHEMBL4257529, “Antifungal amphiphilic kanamycins: new life for an old drug” (Medchemcomm, 2018):
Converted amounts (≈) assume the structure as drawn.

Columns and labels:
Type in all cases: functional
Fusarium graminearum [1] = experiment: Antifungal activity against Fusarium graminearum by microbroth dilution assay
Escherichia coli = experiment: Antibacterial activity against Escherichia coli ATCC 25922 after 12 to 18 hrs
Staphylococcus aureus = experiment: Antibacterial activity against Staphylococcus aureus ATCC 25923 after 12 to 18 hrs
Aspergillus flavus = experiment: Antifungal activity against Aspergillus flavus after 12 to 18 hrs
Fusarium graminearum [2] = experiment: Antifungal activity against Fusarium graminearum after 12 to 18 hrs

Structure (SMILES)	MIC (Fusarium graminearum [1])	MIC (Escherichia coli)	MIC (Staphylococcus aureus)	MIC (Aspergillus flavus)	MIC (Fusarium graminearum [2])
CCCCCCCCO[C@H]1[C@@H](O[C@@H]2[C@@H](O)[C@H](O[C@H]3O[C@H](CN)[C@@H](O)[C@H](O)[C@H]3N)[C@@H](N)C[C@H]2N)O[C@H](CO)[C@@H](O)[C@@H]1O	20 µg/mL (≈ 33.5 µM)				
CCCCCCCCO[C@@H]1[C@@H](O)[C@@H](O[C@@H]2[C@@H](O)[C@H](O[C@H]3O[C@H](CN)[C@@H](O)[C@H](O)[C@H]3N)[C@@H](N)C[C@H]2N)O[C@H](CO)[C@H]1O	62.5 µg/mL (≈ 105 µM)				
CCCCCCCCO[C@H]1[C@H](O)[C@@H](N)[C@@H](O[C@H]2[C@H](O)[C@@H](O[C@H]3O[C@H](CO)[C@@H](O)[C@H](O)[C@H]3O)[C@H](N)C[C@@H]2N)O[C@@H]1CN	> 500 µg/mL				
CCCCO[C@H]1[C@H](N)[C@@H](O)[C@@H](O[C@@H]2[C@@H](O)[C@H](O[C@H]3O[C@H](CN)[C@@H](O)[C@H](O)[C@H]3O)[C@@H](N)C[C@H]2N)O[C@@H]1CO		≥ 250 µg/mL	125 µg/mL (≈ 231 µM)	> 500 µg/mL	≥ 500 µg/mL
CCCCCCCOC[C@H]1O[C@H](O[C@@H]2[C@@H](O)[C@H](O[C@H]3O[C@H](CN)[C@@H](O)[C@H](O)[C@H]3O)[C@@H](N)C[C@H]2N)[C@H](O)[C@@H](N)[C@@H]1OCCCCCCC		125 µg/mL (≈ 184 µM)	125 µg/mL (≈ 184 µM)	500 µg/mL (≈ 734 µM)	15.6 µg/mL (≈ 22.9 µM)
CCCCCCCCO[C@@H]1[C@@H](O[C@H]2O[C@H](CO)[C@@H](O)[C@H](O)[C@H]2O)[C@H](N)C[C@H](N)[C@H]1O[C@H]1O[C@H](CN)[C@@H](O)[C@H](O)[C@H]1N	> 500 µg/mL				
CCCCCCCCOC[C@H]1O[C@H](O[C@@H]2[C@@H](O)[C@H](O[C@H]3O[C@H](CN)[C@@H](O)[C@H](O)[C@H]3O)[C@@H](N)C[C@H]2N)[C@H](O)[C@@H](N)[C@@H]1OCCCCCCCC		≥ 250 µg/mL	≥ 250 µg/mL	> 500 µg/mL	31.3 µg/mL (≈ 44.2 µM)
CCCCCCO[C@H]1[C@H](N)[C@@H](O)[C@@H](O[C@@H]2[C@@H](O)[C@H](O[C@H]3O[C@H](CN)[C@@H](O)[C@H](O)[C@H]3O)[C@@H](N)C[C@H]2N)O[C@@H]1CO		≥ 250 µg/mL	64 µg/mL (≈ 113 µM)	> 500 µg/mL	31.3 µg/mL (≈ 55 µM)
CCCCCCOC[C@H]1O[C@H](O[C@@H]2[C@@H](O)[C@H](O[C@H]3O[C@H](CN)[C@@H](O)[C@H](O)[C@H]3O)[C@@H](N)C[C@H]2N)[C@H](O)[C@@H](N)[C@@H]1OCCCCCC		≥ 250 µg/mL	64 µg/mL (≈ 98 µM)	500 µg/mL (≈ 766 µM)	15.6 µg/mL (≈ 23.9 µM)
CCCCCCCCO[C@@H]1[C@@H](N)[C@@H](O[C@H]2[C@H](O)[C@@H](O[C@H]3O[C@H](CO)[C@@H](O)[C@H](O)[C@H]3O)[C@H](N)C[C@@H]2N)O[C@H](CN)[C@H]1O	> 500 µg/mL				
CCCCCCCCCOC[C@H]1O[C@H](O[C@@H]2[C@@H](O)[C@H](O[C@H]3O[C@H](CN)[C@@H](O)[C@H](O)[C@H]3O)[C@@H](N)C[C@H]2N)[C@H](O)[C@@H](N)[C@@H]1OCCCCCCCCC		16 µg/mL (≈ 21.7 µM)	8 µg/mL (≈ 10.9 µM)	500 µg/mL (≈ 678 µM)	125 µg/mL (≈ 170 µM)
CCCCCCCO[C@H]1[C@H](N)[C@@H](O)[C@@H](O[C@@H]2[C@@H](O)[C@H](O[C@H]3O[C@H](CN)[C@@H](O)[C@H](O)[C@H]3O)[C@@H](N)C[C@H]2N)O[C@@H]1CO		≥ 250 µg/mL	125 µg/mL (≈ 215 µM)	> 500 µg/mL	125 µg/mL (≈ 215 µM)
CCCCCCCCO[C@@H]1[C@@H](O)[C@H](O)[C@H](O[C@H]2[C@H](O)[C@@H](O[C@@H]3O[C@@H](CN)[C@H](O)[C@@H](O)[C@@H]3N)[C@H](N)C[C@@H]2N)O[C@H]1CO (single isomer, unassigned)	7.8 µg/mL (≈ 13.1 µM)				
CCCCCCOC[C@@H]1O[C@@H](O[C@@H]2[C@@H](O)[C@H](O[C@@H]3O[C@@H](CN)[C@H](O)[C@@H](O)[C@@H]3N)[C@@H](N)C[C@H]2N)[C@@H](O)[C@H](O)[C@H]1O (stereo in doubt)	125 µg/mL (≈ 220 µM)				
CCCCCCCCOC[C@@H]1O[C@@H](O[C@@H]2[C@@H](O)[C@H](O[C@@H]3O[C@@H](CN)[C@H](O)[C@@H](O)[C@@H]3N)[C@@H](N)C[C@H]2N)[C@@H](O)[C@H](O)[C@H]1O (stereo in doubt)	31.3 µg/mL (≈ 52.5 µM)				
